Tested on: 323965-272-R-J2-PDC complex spheroid growth, % test/control
Experiment: Anticancer human tumor 323965-272-R-J2-PDC patient-derived pancreatic carcinoma cell line growth inhibition [Asc]
Conditions: for IC50: curve of first compound; for viability, T/C: stronger effect = lower value
Summary of the method: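 Complex spheroids combining tumor cells with HUVEC endothelial cells and human MSCs, at 37 degrees C, 5% CO2; agents tested alone or combined, half-log dilutions from at or near clinical Cmax, or 10 microM if Cmax unknown.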

[1] = second compound 0.00949 µM, first compound 0.00316 µM
[2] = second compound 0.00949 µM, first compound 0.01 µM
[3] = second compound 0.00949 µM, first compound 0.0316 µM
[4] = second compound 0.00949 µM, first compound 0.1 µM
[5] = second compound 0.03 µM, first compound 0.00316 µM
[6] = second compound 0.03 µM, first compound 0.01 µM
[7] = second compound 0.03 µM, first compound 0.0316 µM
[8] = second compound 0.03 µM, first compound 0.1 µM
[9] = second compound 0.0949 µM, first compound 0.00316 µM
[10] = second compound 0.0949 µM, first compound 0.01 µM
[11] = second compound 0.0949 µM, first compound 0.0316 µM
[12] = second compound 0.0949 µM, first compound 0.1 µM
[13] = second compound 0.3 µM, first compound 0.00316 µM
[14] = second compound 0.3 µM, first compound 0.01 µM
[15] = second compound 0.3 µM, first compound 0.0316 µM
[16] = second compound 0.3 µM, first compound 0.1 µM
[17] = second compound 0.949 µM, first compound 0.00316 µM
[18] = second compound 0.949 µM, first compound 0.01 µM
[19] = second compound 0.949 µM, first compound 0.0316 µM
[20] = second compound 0.949 µM, first compound 0.1 µM
[21] = second compound 3 µM, first compound 0.00316 µM
[22] = second compound 3 µM, first compound 0.01 µM
[23] = second compound 3 µM, first compound 0.0316 µM
[24] = second compound 3 µM, first compound 0.1 µM
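Note: compound exposure lasted 7 days starting three days after spheroid seeding.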
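Throughout, for viability, T/C: 100% = DMSO vehicle control wells with viability set relative to vehicle.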

COc1c(OCCCN2CCOCC2)ccc2c3n(c(=NC(=O)c4cnc(N)nc4)nc12)CCN3 + CCN1C(C(=O)NC23CCC(C(=O)O)(CC2)CC3)C(c2cccc(Cl)c2F)C2(C(=O)Nc3cc(Cl)ccc32)C12CCCCC2
IC50 (second compound 0.00949 µM): 151 nM | IC50 (second compound 0.03 µM): 130 nM | IC50 (second compound 0.0949 µM): 130 nM | IC50 (second compound 0.3 µM): 133 nM | IC50 (second compound 0.949 µM): 138 nM | IC50 (second compound 3 µM): 102 nM | viability, T/C [1]: 96% | viability, T/C [2]: 97.7% | viability, T/C [3]: 70.7% | viability, T/C [4]: 62.5% | viability, T/C (second compound 0.00949 µM, first compound 0.316 µM): 34.2% | viability, T/C (second compound 0.00949 µM, first compound 1 µM): 25.7% | viability, T/C [5]: 103% | viability, T/C [6]: 96.4% | viability, T/C [7]: 73.3% | viability, T/C [8]: 52.2% | viability, T/C (second compound 0.03 µM, first compound 0.316 µM): 42.2% | viability, T/C (second compound 0.03 µM, first compound 1 µM): 30.4% | viability, T/C [9]: 97% | viability, T/C [10]: 85.6% | viability, T/C [11]: 78.5% | viability, T/C [12]: 50.7% | viability, T/C (second compound 0.0949 µM, first compound 0.316 µM): 38.4% | viability, T/C (second compound 0.0949 µM, first compound 1 µM): 25.5% | viability, T/C [13]: 101% | viability, T/C [14]: 89.2% | viability, T/C [15]: 69.8% | viability, T/C [16]: 56.3% | viability, T/C (second compound 0.3 µM, first compound 0.316 µM): 36.6% | viability, T/C (second compound 0.3 µM, first compound 1 µM): 27.6% | viability, T/C [17]: 99.7% | viability, T/C [18]: 82.7% | viability, T/C [19]: 70.3% | viability, T/C [20]: 51% | viability, T/C (second compound 0.949 µM, first compound 0.316 µM): 42.3% | viability, T/C (second compound 0.949 µM, first compound 1 µM): 30.1% | viability, T/C [21]: 89.4% | viability, T/C [22]: 82.4% | viability, T/C [23]: 63.9% | viability, T/C [24]: 49.6% | viability, T/C (second compound 3 µM, first compound 0.316 µM): 38.5% | viability, T/C (second compound 3 µM, first compound 1 µM): 26%

NC(=O)C(=Cn1cnc(-c2cc(C(F)(F)F)cc(C(F)(F)F)c2)n1)c1cncnc1 + CCN1C(C(=O)NC23CCC(C(=O)O)(CC2)CC3)C(c2cccc(Cl)c2F)C2(C(=O)Nc3cc(Cl)ccc32)C12CCCCC2
IC50 (second compound 0.00949 µM): > 300 nM | IC50 (second compound 0.03 µM): > 300 nM | IC50 (second compound 0.0949 µM): > 300 nM | IC50 (second compound 0.3 µM): > 300 nM | IC50 (second compound 0.949 µM): > 300 nM | IC50 (second compound 3 µM): > 300 nM | viability, T/C (second compound 0.00949 µM, first compound 0.000949 µM): 108% | viability, T/C (second compound 0.00949 µM, first compound 0.003 µM): 100% | viability, T/C (second compound 0.00949 µM, first compound 0.00949 µM): 98% | viability, T/C (second compound 0.00949 µM, first compound 0.03 µM): 105% | viability, T/C (second compound 0.00949 µM, first compound 0.0949 µM): 86.3% | viability, T/C (second compound 0.00949 µM, first compound 0.3 µM): 57.9% | viability, T/C (second compound 0.03 µM, first compound 0.000949 µM): 109% | viability, T/C (second compound 0.03 µM, first compound 0.003 µM): 105% | viability, T/C (second compound 0.03 µM, first compound 0.00949 µM): 96.8% | viability, T/C (second compound 0.03 µM, first compound 0.03 µM): 99.8% | viability, T/C (second compound 0.03 µM, first compound 0.0949 µM): 90% | viability, T/C (second compound 0.03 µM, first compound 0.3 µM): 68% | viability, T/C (second compound 0.0949 µM, first compound 0.000949 µM): 111% | viability, T/C (second compound 0.0949 µM, first compound 0.003 µM): 101% | viability, T/C (second compound 0.0949 µM, first compound 0.00949 µM): 109% | viability, T/C (second compound 0.0949 µM, first compound 0.03 µM): 100% | viability, T/C (second compound 0.0949 µM, first compound 0.0949 µM): 91.7% | viability, T/C (second compound 0.0949 µM, first compound 0.3 µM): 55.5% | viability, T/C (second compound 0.3 µM, first compound 0.000949 µM): 101% | viability, T/C (second compound 0.3 µM, first compound 0.003 µM): 103% | viability, T/C (second compound 0.3 µM, first compound 0.00949 µM): 101% | viability, T/C (second compound 0.3 µM, first compound 0.03 µM): 99% | viability, T/C (second compound 0.3 µM, first compound 0.0949 µM): 88.7% | viability, T/C (second compound 0.3 µM, first compound 0.3 µM): 55.2% | viability, T/C (second compound 0.949 µM, first compound 0.000949 µM): 103% | viability, T/C (second compound 0.949 µM, first compound 0.003 µM): 93.9% | viability, T/C (second compound 0.949 µM, first compound 0.00949 µM): 84.3% | viability, T/C (second compound 0.949 µM, first compound 0.03 µM): 87.7% | viability, T/C (second compound 0.949 µM, first compound 0.0949 µM): 85.7% | viability, T/C (second compound 0.949 µM, first compound 0.3 µM): 53.6% | viability, T/C (second compound 3 µM, first compound 0.000949 µM): 94% | viability, T/C (second compound 3 µM, first compound 0.003 µM): 101% | viability, T/C (second compound 3 µM, first compound 0.00949 µM): 89.5% | viability, T/C (second compound 3 µM, first compound 0.03 µM): 85.2% | viability, T/C (second compound 3 µM, first compound 0.0949 µM): 82.3% | viability, T/C (second compound 3 µM, first compound 0.3 µM): 53%

NC1CCC(NC2CC2c2ccccc2)CC1 (stereo unspecified) + CCN1C(C(=O)NC23CCC(C(=O)O)(CC2)CC3)C(c2cccc(Cl)c2F)C2(C(=O)Nc3cc(Cl)ccc32)C12CCCCC2
IC50 (second compound 0.00949 µM): > 100 nM | IC50 (second compound 0.03 µM): > 100 nM | IC50 (second compound 0.0949 µM): > 100 nM | IC50 (second compound 0.3 µM): > 100 nM | IC50 (second compound 0.949 µM): > 100 nM | IC50 (second compound 3 µM): > 100 nM | viability, T/C (second compound 0.00949 µM, first compound 0.000316 µM): 98.9% | viability, T/C (second compound 0.00949 µM, first compound 0.001 µM): 94.2% | viability, T/C [1]: 94.8% | viability, T/C [2]: 97.5% | viability, T/C [3]: 98.2% | viability, T/C [4]: 88.2% | viability, T/C (second compound 0.03 µM, first compound 0.000316 µM): 97.3% | viability, T/C (second compound 0.03 µM, first compound 0.001 µM): 99.5% | viability, T/C [5]: 103% | viability, T/C [6]: 102% | viability, T/C [7]: 97.9% | viability, T/C [8]: 92.8% | viability, T/C (second compound 0.0949 µM, first compound 0.000316 µM): 116% | viability, T/C (second compound 0.0949 µM, first compound 0.001 µM): 91% | viability, T/C [9]: 104% | viability, T/C [10]: 99.9% | viability, T/C [11]: 101% | viability, T/C [12]: 88.9% | viability, T/C (second compound 0.3 µM, first compound 0.000316 µM): 99.6% | viability, T/C (second compound 0.3 µM, first compound 0.001 µM): 94.2% | viability, T/C [13]: 101% | viability, T/C [14]: 96.8% | viability, T/C [15]: 99.7% | viability, T/C [16]: 88.3% | viability, T/C (second compound 0.949 µM, first compound 0.000316 µM): 102% | viability, T/C (second compound 0.949 µM, first compound 0.001 µM): 95.5% | viability, T/C [17]: 94.8% | viability, T/C [18]: 92.5% | viability, T/C [19]: 106% | viability, T/C [20]: 96% | viability, T/C (second compound 3 µM, first compound 0.000316 µM): 98.6% | viability, T/C (second compound 3 µM, first compound 0.001 µM): 88.3% | viability, T/C [21]: 90.2% | viability, T/C [22]: 97.2% | viability, T/C [23]: 96.4% | viability, T/C [24]: 87.7%
